Test results taken from patent publication US20030143608A1, “Drug response marker in beta-1 adrenergic receptor gene” (Myriad Genetics, Incorporated, priority 2001, published 2003).

System: patients with symptoms diagnosed as hypertension
Experiment: Antihypertensive drug response by beta-1 adrenergic receptor A145G genotype in hypertensive patients
Assay type: in vivo, human
Details: for Average Change in Blood Pressure: Sardinian hypertensive patients, atenolol 100 mg b.i.d., HCTZ 25 mg u.i.d. or fosinopril 20 mg u.i.d. for 2 months, change from baseline
Procedure: For our study, three drugs—fosinopril, atenolol, and hydrochlorothiazide—were administered to patients with symptoms diagnosed as hypertension (a diastolic blood pressure above 89 mmHg and a systolic blood pressure above 139 mmHg). Since essential hypertension is a complex multifactorial disease with an environmental component and a genetic interaction basis, we selected a […] patient sample from Sardinia, which ensured genetic homogeneity. Piazza, Science 260:1767-9 (1993). Patients were unrelated Sardinian from at least 2 generations. Approximately 75% of the patients were previously untreated for hypertension, whereas the remaining were absent from antihypertensive treatment for at least 6 months prior to testing, thus ensuring that modifications in blood pressure during the study were mostly due to the drug under study and not the spurious effects related to previous treatments.
After a 2-month pre-treatment period, during which blood pressure was measured periodically, patients with blood pressure (as average of 3 measurements performed in standard conditions) still over 140/90 (n=494) where randomly assigned to one of the following drugs: atenolol 100 mg b.i.d., hydrochlorothiazide (HCTZ) 25 mg u.i.d. or fosinopril 20 mg u.i.d. for 2 months. After a treatment was begun, patient blood pressure, heart rate and body weight were assessed every 2 weeks, and values at +4 and +8 weeks tabulated and considered for analysis.
Genomic DNA was extracted from the leukocytes of each individual using a genomic DNA extraction kit based on […]. Genomic DNA of the beta-1 adrenergic receptor gene was then amplified using standard PCR procedures. The PCR product was diluted 1:10 in EDTA 1 mM and then submitted for automated sequencing carried out with an Applied Biosystems Sequencer using dye primer chemistry.
To evaluate the association between each patient's genotype and the response of the individual to the respective drug, the change in blood pressure was analyzed from the baseline to the follow-up measurements at 4 and 8 weeks. A linear regression model was then used to adjust for the effect of baseline blood pressure levels and sex of the individual. The difference in average change of blood pressure between genotypes for each time interval was determined through analysis of covariance.

[1] = genotype AA (homozygous wild-type)
[2] = genotype GG (homozygous A145G variant)

SMILES	Average Change in Blood Pressure [1] [mmHg]	Average Change in Blood Pressure (genotype AG (heterozygous)) [mmHg]	Average Change in Blood Pressure [2] [mmHg]	relative blood pressure response between drugs (individuals homozygous for A145G (GG), analysis of covariance, adjusted for baseline blood pressure and sex)
CC(C)NCC(O)COc1ccc(CC(N)=O)cc1 (stereo not shown) [Atenolol, atenolol]	−17.3	−17.9	−10.6	–
NS(=O)(=O)c1cc2c(cc1Cl)NCNS2(=O)=O [Hydrochlorothiazide, hydrochlorothiazide]	−10.2	−12.9	−30.5	more likely (p=0.0055) to experience a significant decrease in blood pressure
CCC(=O)O[C@@H](O[P@](=O)(CCCCc1ccccc1)CC(=O)N1C[C@H](C2CCCCC2)C[C@H]1C(=O)O)C(C)C [Fosinopril, fosinopril]	−12.3	−8.6	−23.0	–
